# Read-outs that look alike come from different tables or passages of the source.
# Tests used:
# human PAI-1 = human PAI-1 (Homo sapiens, UniProt P05121); assay: Assay for determining IC50 of inhibition of PAI-1 (tPA-coated plate, antibody detection of active PAI-1); conditions: human PAI-1 50 ng/ml, pH 7.5, binding to tPA-coated plate
# Description: Assay for Determining IC50 of Inhibition of PAI-1
# This assay is based upon the non-SDS dissociable interaction between tPA and active PAI-1. Assay plates were initially coated with human tPA (10 μg/ml). Test compounds were dissolved in DMSO at 10 mM, then diluted with physiologic buffer (pH 7.5) to a final concentration of 1-50 μM. Test compounds were incubated with human PAI-1 (50 ng/ml) for 15 minutes at room temperature. The tPA-coated plate was washed with a solution of 0.05% Tween 20 and 0.1% BSA, then the plate was blocked with a solution of 3% BSA. An aliquot of the test compound/PAI-1 solution was then added to the tPA-coated plate, incubated at room temperature for 1 hour, and washed. Active PAI-1 bound to the plate was assessed by adding an aliquot of a 1:1000 dilution of the 33B8 monoclonal antibody against human PAI-1, and incubating the plate at room temperature for 1 hour (Molecular Innovations, Royal Oak, Mich.). The plate was again washed, and a solution of goat anti-mouse IgG-alkaline phosphatase conjugate is added at a 1:50,000 dilution in goat serum. The plate was incubated 30 minutes at room temperature, washed, and a solution of alkaline phosphatase substrate is added. The plate was incubated 45 minutes at room temperature, and color development is determined at OD405 nm. The quantition of active PAI-1 bound to tPA at varying concentrations of the test compound was used to determine the IC50. Results were analyzed using a logarithmic best-fit equation. The assay sensitivity was 5 ng/ml of human PAI-1 as determined from a standard curve ranging from 0-100 ng/ml.
# [1] = biological target: T1, recombinant human plasminogen activator inhibitor-1 (Homo sapiens, UniProt P05121); assay: Primary screen for the PAI-1 inhibition (chromogenic residual tPA activity); type: biochemical
# T1 construct: purchased Molecular Innovations, Royal Oak, Mich
# Description: Primary Screen for the PAI-1 Inhibition
# Test compounds were dissolved in DMSO at a final concentration of 10 mM, then diluted 100× in physiologic buffer. The inhibitory assay was initiated by the addition of the test compound (1-100 μM final concentration, maximum DMSO concentration of 0.2%) in a pH 6.6 buffer containing 140 nM recombinant human plasminogen activator inhibitor-1 (Molecular Innovations, Royal Oak, Mich.). Following a 1 hour incubation at room temperature, 70 nM of recombinant human tissue plasminogen activator (tPA) was added, and the combination of the test compound, PAI-1 and tPA was incubated for an additional 30 minutes. Following the second incubation, Spectrozyme-tPA (American Diagnostica, Greenwich, Conn.), a chromogenic substrate for tPA, was added and absorbance read at 405 nm at 0 and 60 minutes. Relative PAI-1 inhibition was equal to the residual tPA activity in the presence of the test compound and PAI-1. Control treatments included the complete inhibition of tPA by PAI-1 at the molar ratio employed (2:1), and the absence of any effect of the test compound on tPA alone.
# [2] = 25 uM test compound, 140 nM PAI-1, 70 nM tPA, pH 6.6, read-out: % inhibition at 25 uM
# [3] = pH 6.6, read-out: % inhibition at 25 uM
# Sequence of human PAI-1 (P05121 24-402): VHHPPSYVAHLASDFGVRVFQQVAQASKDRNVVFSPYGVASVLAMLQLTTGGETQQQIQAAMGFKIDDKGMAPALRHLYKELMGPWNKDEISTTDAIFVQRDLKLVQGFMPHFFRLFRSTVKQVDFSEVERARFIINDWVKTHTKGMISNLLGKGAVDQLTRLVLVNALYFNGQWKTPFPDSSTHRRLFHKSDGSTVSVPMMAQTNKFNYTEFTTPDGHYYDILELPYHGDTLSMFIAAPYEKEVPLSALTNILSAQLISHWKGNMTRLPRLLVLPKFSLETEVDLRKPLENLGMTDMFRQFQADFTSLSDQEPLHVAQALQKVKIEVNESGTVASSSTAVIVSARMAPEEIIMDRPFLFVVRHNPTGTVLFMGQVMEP
# T1 sequence (P05121 24-402): as above
IC50 (human PAI-1),SMILES,melting point,"inhibition at 25 µM [1, 2]","inhibition at 25 µM [1, 3]"
2.3 µM,"Cc1ccc(Cn2c3c(c4cc(-c5ccc(OC(F)(F)F)cc5)ccc42)C(=O)C(=O)OC3)cc1 [Example 1, 9-(4-Methylbenzyl)-6-[4-(trifluoromethoxy)phenyl]-1,9-dihydropyrano[3,4-b]indole-3,4-dione]",243 to 244 °C,,
,"O=C1OCc2c(c3cc(-c4ccc(OC(F)(F)F)cc4)ccc3n2Cc2ccccc2)C1=O [Example 2, 9-Benzyl-6-[4-(trifluoromethoxy)phenyl]-1,9-dihydropyrano[3,4-b]indole-3,4-dione]",239 to 240 °C,34%,
,"Cc1ccc(Cn2c3c(c4cc(-c5cccc(C)c5)ccc42)C(=O)C(=O)OC3)cc1 [Example 3, 9-(4-Methylbenzyl)-6-(3-methylphenyl)-1,9-dihydropyrano[3,4-b]indole-3,4-dione]",216 to 217 °C,,22%
29.5 µM,"Cc1cccc(-c2ccc3c(c2)c2c(n3Cc3ccc(C(C)(C)C)cc3)COC(=O)C2=O)c1 [Example 4, 9-(4-tert-butylbenzyl)-6-(3-methylphenyl)-1,9-dihydropyrano[3,4-b]indole-3,4-dione]",196 to 197 °C,,
26.6 µM,"Cc1ccc(Cn2c3c(c4cc(OCc5ccccc5)ccc42)C(=O)C(=O)OC3)cc1 [Example 5, 6-(Benzyloxy)-9-(4-methylbenzyl)-1,9-dihydropyrano[3,4-b]indole-3,4-dione]",206 to 207 °C,,
34.8 µM,"O=C1OCc2[nH]c3ccc(OCc4ccccc4)cc3c2C1=O [Example 6, 6-(Benzyloxy)-1,9-dihydropyrano[3,4-b]indole-3,4-dione]",> 291 °C (dec.),,
,"CC(C)(C)c1ccc(Cn2c3c(c4cc(OCc5ccccc5)ccc42)C(=O)C(=O)OC3)cc1 [Example 7, 6-(Benzyloxy)-9-(4-tert-butylbenzyl)-1,9-dihydropyrano[3,4-b]indole-3,4-dione]",233 to 234 °C,6%,
4.83 µM,"CC(C)(C)c1ccc(Cn2c3c(c4cc(O)ccc42)C(=O)C(=O)OC3)cc1 [Example 8, 9-(4-tert-Butylbenzyl)-6-hydroxy-1,9-dihydropyrano[3,4-b]indole-3,4-dione]",> 105 °C (dec.),,
,"O=C1OCc2c(c3cc(-c4ccc(Cl)cc4)ccc3n2Cc2ccccc2)C1=O [Example 9, 9-Benzyl-6-(4-chlorophenyl)-1,9-dihydropyrano[3,4-b]indole-3,4-dione]",263 to 264 °C,,40%
,"O=C([O-])C(=O)c1c(CO)n(Cc2ccccc2)c2ccc(-c3ccc(Cl)cc3)cc12.[K+] [Example 10, [1-Benzyl-5-(4-chlorophenyl)-2-(hydroxymethyl)-1H-indol-3-yl](oxo)acetic acid, potassium salt]",225 to 226 °C,,59%
,"Cc1cccc(-c2ccc3c(c2)c2c(n3Cc3ccccc3)COC(=O)C2=O)c1 [Example 11, 9-Benzyl-6-(3-methylphenyl)-1,9-dihydropyrano[3,4-b]indole-3,4-dione]",225 to 226 °C,,30%
,"O=C1OCc2c(c3cc(-c4ccc(-c5ccccc5)cc4)ccc3n2Cc2ccccc2)C1=O [Example 12, 9-Benzyl-6-(1,1′-biphenyl-4-yl)-1,9-dihydropyrano[3,4-b]indole-3,4-dione]",254 to 255 °C,40%,
,"O=C([O-])C(=O)c1c(CO)n(Cc2ccccc2)c2ccc(-c3ccc(-c4ccccc4)cc3)cc12.[K+] [Example 13, [1-Benzyl-5-(1,1′-biphenyl-4-yl)-2-(hydroxymethyl)-1H-indol-3-yl](oxo)acetic acid, potassium salt]",266 to 268 °C,,36%
